Among the test systems are A549 NSCLC; NCI-H226 lung; NCI-H460 lung; RPMI-8226 leukemia; SW-620 colon; TK-10 renal; COLO 205 colon; OVCAR-4 ovarian; SK-MEL-28 melanoma.
Common to all, as to test: NCI-60 cell line screen, 48 h

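All cell lines were grown in 96-well plates and treated with compound for 48 hours. GI50 marks 50% less growth. TGI: total growth inhibition.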

As to `CCOP(=O)(OCC)C(NC(c1ccccc1)c1ccccc1)c1cccc2ccccc12` (stereo unspecified), the GI50 in the assay with A549 NSCLC was 4.28 µM; in the assay with NCI-H226 lung, 4.63 µM; with NCI-H460 lung it was 5.05 µM; in the assay on RPMI-8226 leukemia it was 2.38 µM; in the assay on SW-620 colon, 22.2 µM; with TK-10 renal it was 10.3 µM. The TGI is above 100 µM in the assay with A549 NSCLC; 19 µM in the assay on NCI-H226 lung; 25.8 µM in the assay with NCI-H460 lung; 5.57 µM with RPMI-8226 leukemia; 57.6 µM in the assay with SW-620 colon; 29.4 µM in the assay on TK-10 renal.

Regarding `S=c1[nH]c2ccc(Br)cc2c(=S)n1-c1ccccc1`, the TGI in the assay with A549 NSCLC is above 100 µM; in the assay on COLO 205 colon it was 47.1 µM; in the assay on NCI-H226 lung, 83.6 µM; with NCI-H460 lung, 45.2 µM; in the assay with OVCAR-4 ovarian it was above 100 µM; in the assay with RPMI-8226 leukemia, 56.7 µM. The TGI in the assay with SK-MEL-28 melanoma was 59.9 µM; in the assay on SW-620 colon it was above 100 µM; with TK-10 renal, above 100 µM.

For `CC1S(=O)(=O)OCCOS1(=O)=O`, the TGI in the assay on A549 NSCLC, with COLO 205 colon, in the assay with NCI-H226 lung, in the assay on NCI-H460 lung, in the assay with OVCAR-4 ovarian and in the assay with RPMI-8226 leukemia was above 100 µM each time. Besides, the TGI in the assay with SK-MEL-28 melanoma, in the assay on SW-620 colon and in the assay with TK-10 renal was above 100 µM in each case.

`Cc1cc(=O)oc2cc3c(cc12)Oc1ccccc1O3`: the TGI in the assay on A549 NSCLC, with COLO 205 colon, in the assay on NCI-H226 lung, in the assay on NCI-H460 lung, in the assay with OVCAR-4 ovarian and with RPMI-8226 leukemia was above 100 µM each time. Further, the TGI in the assay with SK-MEL-28 melanoma, in the assay on SW-620 colon and in the assay with TK-10 renal was above 100 µM each time.

On to `CCC12CCCC(=O)N1C(CO)C(c1ccccc1)O2` (stereo unspecified), for which the TGI in the assay with A549 NSCLC, in the assay on COLO 205 colon, with NCI-H460 lung, in the assay with OVCAR-4 ovarian, in the assay on RPMI-8226 leukemia and in the assay on SK-MEL-28 melanoma was above 100 µM each time. Besides, the TGI with SW-620 colon and in the assay on TK-10 renal was above 100 µM each time.

Take `O=C(O)c1cc(=O)c2[nH]c3ccccc3c2s1`: the TGI in the assay on A549 NSCLC, in the assay with COLO 205 colon, in the assay on NCI-H460 lung, with OVCAR-4 ovarian, with RPMI-8226 leukemia and in the assay on SK-MEL-28 melanoma was above 100 µM throughout. Besides, the TGI with SW-620 colon and in the assay with TK-10 renal was above 100 µM each time.

With `CC(=O)n1c2ccccc2c2nc3nc(Oc4ccc(C)cc4)c4ccccc4c3cc21`, the TGI with A549 NSCLC, with COLO 205 colon, in the assay on NCI-H226 lung, in the assay on NCI-H460 lung, in the assay with OVCAR-4 ovarian and in the assay on RPMI-8226 leukemia was above 100 µM each time. The TGI in the assay with SK-MEL-28 melanoma and in the assay on SW-620 colon was above 100 µM throughout.

For `COc1cccc(C(=O)C2C(=O)N(C)CCc3ccccc32)c1OC` (stereo unspecified), the TGI in the assay on A549 NSCLC, with COLO 205 colon, in the assay with NCI-H226 lung, in the assay on NCI-H460 lung, with OVCAR-4 ovarian and in the assay with RPMI-8226 leukemia was above 100 µM throughout. Further, the TGI with SK-MEL-28 melanoma, with SW-620 colon and in the assay on TK-10 renal was above 100 µM in each case.

Consider `COc1cc(/C=C/C(=O)c2sc(Nc3ccccc3)nc2C)ccc1O`, for which the TGI in the assay with A549 NSCLC, with COLO 205 colon, in the assay on NCI-H460 lung, in the assay on RPMI-8226 leukemia, in the assay on SK-MEL-28 melanoma and in the assay on SW-620 colon was above 100 µM throughout. This molecule had a TGI in the assay with TK-10 renal above 100 µM.

`CN(C)CCCN1CCc2c([nH]c3ccccc23)C1c1cccnc1` (stereo unspecified): the TGI in the assay with A549 NSCLC, in the assay with COLO 205 colon, in the assay with NCI-H226 lung, in the assay with NCI-H460 lung, in the assay on OVCAR-4 ovarian and in the assay on RPMI-8226 leukemia was above 100 µM throughout. For the same molecule, the TGI with SK-MEL-28 melanoma, with SW-620 colon and in the assay with TK-10 renal was above 100 µM each time.

For `N#CC(C(=O)C(=O)NCCCNC(=O)C(=O)C(C#N)c1ccccc1)c1ccccc1` (stereo unspecified), the TGI in the assay on A549 NSCLC, in the assay on COLO 205 colon, in the assay with NCI-H226 lung, in the assay on NCI-H460 lung, in the assay on OVCAR-4 ovarian and in the assay on RPMI-8226 leukemia was above 100 µM each time. Moreover, the TGI in the assay on SK-MEL-28 melanoma, in the assay with SW-620 colon and with TK-10 renal was above 100 µM each time.

With `N[C@H](C(=O)O)[C@H](Cl)CC(=O)O`, the TGI in the assay with A549 NSCLC, with COLO 205 colon, with NCI-H226 lung, with NCI-H460 lung, in the assay with OVCAR-4 ovarian and in the assay on SK-MEL-28 melanoma was above 100 µM each time. In addition, the TGI in the assay on SW-620 colon and in the assay on TK-10 renal was above 100 µM each time.

`COc1nc2nccc-2c2occn12`: the TGI in the assay with A549 NSCLC, in the assay on COLO 205 colon, in the assay on NCI-H460 lung, in the assay on OVCAR-4 ovarian, in the assay on RPMI-8226 leukemia and in the assay on SK-MEL-28 melanoma was above 100 µM in each case. Moreover, the TGI with SW-620 colon and with TK-10 renal was above 100 µM throughout.

On to `NNC(=O)CCC(=O)NC1C2CC3CC(C2)CC1C3` (stereo unspecified), for which the TGI in the assay with A549 NSCLC, in the assay with COLO 205 colon, in the assay with NCI-H226 lung, with NCI-H460 lung, with OVCAR-4 ovarian and in the assay on RPMI-8226 leukemia was above 100 µM each time. Moreover, the TGI with SK-MEL-28 melanoma, in the assay on SW-620 colon and in the assay on TK-10 renal was above 100 µM in each case.

`O=c1cc(-c2ccccc2)c2cc3c(=O)ccoc3cc2o1`: the TGI with A549 NSCLC, in the assay on COLO 205 colon, with NCI-H226 lung, in the assay on NCI-H460 lung, with OVCAR-4 ovarian and with RPMI-8226 leukemia was above 100 µM in each case. Moreover, the TGI in the assay with SK-MEL-28 melanoma, in the assay on SW-620 colon and in the assay with TK-10 renal was above 100 µM throughout.

For the origin of these results see PubChem BioAssay (NCI).
